The METLIN SMRT retention time set (Domingo-Almenara et al. 2019)

Assay: gradient 5% acetonitrile 3 min, to 50% in 2 min, to 85% in 15 min, held 3 min, 100 µL/min
Conditions: column: Zorbax Extend-C18 2.1 x 50 mm; eluents: water / acetonitrile, 0.1% formic acid
How it was run: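 Retention times of pure standards were taken from adduct peaks that were selected by computer and manually inspected. Over 3 months, mixtures of ~100 molecules were run by HPLC–quadrupole time-of-flight mass spectrometry in positive and negative ionization mode. The Zorbax Extend-C18 column (2.1 × 50 mm, 1.8 μm) ran at 100 μL/min in water and acetonitrile, each containing 0.1% formic acid, with 40 μL dead volume and 900 μL dwell volume.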

| Compound | RP-LC retention time |
| --- | --- |
| Fc1ccc(CN2CCc3nc(N4CCN(c5ccccc5F)CC4)ncc3C2)cc1F | 806 s |
| COc1cccc2c1OC1(C)CC2C(S(=O)(=O)c2ccc(C)c(C)c2)C(=O)N1 (stereo not given) | 888 s |
| CC(C)NC(=O)NCc1ccc2c(c1)N(C(=O)c1ccccc1)C(C)C2 (stereo not given) | 778 s |
| NC(=O)c1ccccc1NC(=O)CCCn1cnc(-c2ccc(F)cc2)cc1=O | 666 s |
| COc1ccc(NC(=O)CSc2nccnc2-n2nc(C)cc2C)cc1OC | 702 s |
| Cc1ccc(CNS(=O)(=O)c2cc3n(c2)CCCNC3=O)cc1C | 739 s |
| Cc1cc(-c2nnc(-c3ccc(F)cc3)o2)c(C)n1CC(=O)NCc1cccc(F)c1 | 940 s |
| O=C(Oc1ccc[nH]c1=O)c1cccc(Cl)c1 | 756 s |
| Cc1nc(Nc2ccc(NC(=O)COc3ccc(Cl)cc3)cc2)cc(-n2ccnc2)n1 | 646 s |
| Cc1nc(CSCC(=O)Nc2ccc(Cl)cc2)cs1 | 778 s |
| CCc1noc([C@@H]2CC(F)(F)CN2C(=O)c2cn(C)cn2)n1 | 644 s |
| CCOc1ccc(-c2nc(-c3ccc4c(c3)oc(=O)n4C(C)C)no2)cc1 | 1230 s |
| COc1ccc(-c2noc(CN3C(=O)COc4ccc(C)cc43)n2)cc1OC | 934 s |
| COc1ccc(NC(=O)Nc2cc(-c3cn4cccnc4n3)ccc2OC)cc1 | 651 s |
| O=S(=O)(c1ccc2c(c1)-c1oncc1CO2)N1CCN(c2ccc(F)cc2)CC1 | 1040 s |
| CCC(C)NC(=O)c1ccc(CN2CCN(Cc3ccc(F)cc3)C(=O)C2=O)cc1 (stereo not given) | 739 s |
| Cc1ccc(NC(=O)c2cc(C(C)C)n3nccc3n2)cc1 | 1140 s |
| CCCN1C(=O)COc2ccc(-c3noc(-c4ccc(C)cc4)n3)cc21 | 1300 s |
| COc1cc(OC)cc(-c2noc(-c3nnn(Cc4nc(-c5ccccc5OC)oc4C)c3C)n2)c1 | 1130 s |
| COCCNC(=O)CSc1nc(-c2ccc(F)cc2)[nH]c1-c1ccccc1 | 624 s |
| CC1=NS(=O)(=O)N(Cc2ccccc2)C=C1C(=O)OCc1cc(C)ccc1C | 1200 s |
| O=C1/C(=C/c2cccnc2)Oc2cc(OCc3ccc([N+](=O)[O-])cc3)ccc21 | 838 s |

| Compound | RP-LC retention time |
| --- | --- |
| COc1ccc(C(=O)Nc2nnc(SCc3nnc(-c4ccccc4)o3)s2)cc1 | 899 s |
| Cc1cccc2nnc(N3CCCN(C(=O)c4ccccc4Cl)CC3)n12 | 600 s |
| O=C1[C@H]2CNC[C@H]2C(=O)N1CCc1ccccc1 | 604 s |
| O=C(COC(=O)c1cccnc1)Nc1ccc2c(c1)OCO2 | 640 s |
| Cc1ccc(-n2nc(N3CCN(C(=O)Nc4cc(F)ccc4F)CC3)ccc2=O)cc1 | 834 s |
| COc1cccc(Cn2c(=O)c3sccc3n(Cc3nc(-c4cccc(C)c4)no3)c2=O)c1 | 1160 s |
| Cc1ccccc1Nc1c(-c2ccc(N3CCOCC3)cc2)nc2cccc(C)n12 | 702 s |
| CC(C)c1ncc(CO)n1Cc1c(Cl)cccc1Cl | 663 s |
| Cc1ccccc1Cn1cc(-c2ccncc2)cc1C(=O)NCC(C)C | 712 s |
| COC(=O)c1c(C)[nH]c(C(=O)N2CCC(CC(=O)NCCc3c(C)noc3C)CC2)c1C | 654 s |
| O=c1c2sccc2n(Cc2nc(-c3ccc(F)c(Cl)c3)no2)c(=O)n1Cc1ccccc1 | 1210 s |
| Cc1cc(C)n2c(Nc3ccccc3C)c(-c3ccc(O)cc3)nc2n1 | 907 s |
| CC1=NS(=O)(=O)N(C)C=C1C(=O)OCc1nc(-c2cccc(Cl)c2)no1 | 1010 s |
| CCSC1=NCCN1C(=O)c1ccc(C(F)(F)F)cc1 | 679 s |
| O=C(NCc1ccc2c(c1)OCO2)C(=O)NCC1(CO)CC1 | 627 s |
| CCCCOC(=O)c1[nH]c2c(c1C)C(=O)CC(c1cc(OC)c(OC)c(OC)c1)C2 (stereo not given) | 1020 s |
| C=C(C)Cn1c(C(C)(C)C)cn2c3c(=O)n(C)c(=O)n(C)c3nc12 | 739 s |
| COc1ccc(CN(C)Cc2cc(=O)n3ccccc3n2)cc1OC | 573 s |
| O=C(NC1CCc2nnc(C3CC3)n2CC1)c1cc(C2CC2)[nH]n1 (stereo not given) | 581 s |
| CCC(C)NC(=O)N1C[C@@H]2CN(S(=O)(=O)c3ccc(F)cc3)C[C@H](C1)O2 (stereo not given in full) | 731 s |
| CCOC(=O)c1noc2nc(C)nc(Nc3ccccc3)c12 | 1010 s |

More lines, now with the values ahead:

| RP-LC retention time | Compound |
| --- | --- |
| 673 s | O=C(c1noc2c1CCc1sccc1-2)N1CCN(c2ccccn2)CC1 |
| 582 s | O=C(NC1CCCC1)C1CCN(C(=O)c2cc(-c3ccncc3)n[nH]2)CC1 |
| 790 s | O=C(Nc1ccccc1F)C1CCN(S(=O)(=O)c2cc(C(=O)N3CCCC3)cs2)CC1 |
| 689 s | Cc1cc(=O)n(CC(=O)Nc2cc(F)ccc2C)c(N2CCOCC2)n1 |
| 822 s | CCC(=O)N(C)c1nc2ccccc2n(CC(=O)Nc2c(C)cc(C)cc2C)c1=O |
| 652 s | COCCNC(=O)Cn1c(=O)n(-c2ccc(F)cc2)c2ncccc21 |
| 602 s | O=C(NC1CCCC1)N1CCCCC1c1nncn1-c1ccccc1 (stereo not given) |
| 1180 s | O=C(NCc1ccccc1Cl)c1c(O)c2cccc3c2n(c1=O)CC3 |
| 1050 s | Cc1ccc(C2Cn3nnc(C(=O)NC4CCCCC4)c3CO2)cc1 (stereo not given) |
| 1090 s | Cc1ccc(NC(=O)c2cn(-c3cc(-c4nc(C5CC5)no4)ccn3)cn2)c(C)c1 |
| 579 s | O=C(NCC#CCN1CCc2ccccc2C1)c1ccc2cc[nH]c2c1 |
| 588 s | O=c1oc2c(CN3CCCC3)c(O)ccc2c2c1CCC2 |
| 598 s | CCOCCCNC(=O)c1ccc(-c2ccc3c(c2)CCN3C(C)=O)cc1 |
| 758 s | O=C(c1cnccn1)N1CCC(c2nc(-c3ccccc3)no2)C1 (stereo not given) |
| 593 s | Cc1cc(=O)c(OCc2ccccc2F)cn1CC(=O)NCc1ccco1 |
| 561 s | CCn1cnnc1C1CCN(C(=O)c2sccc2C)CC1 |
| 831 s | CCCSc1nnc(CNC(=O)c2ccccc2F)n1-c1cccc(C(F)(F)F)c1 |
| 894 s | Cc1nc(-c2csc(S(=O)(=O)N3CCCC(C(=O)Nc4ccc5c(c4)OCO5)C3)c2)no1 (stereo not given) |
| 716 s | Cc1cnc(C(=O)N2CCCCCCN(C)C(=O)[C@@H]3CCC[C@@H]32)cn1 |
| 796 s | Cc1cccc(CNC(=O)c2ccc3c(c2)Sc2ncccc2C(=O)N3C)c1 |
| 606 s | CCCNC(=O)CCC1CCN(c2cc(NCCC)ncn2)CC1 |
| 999 s | Cc1nc2cc(-c3noc(C(C)NC(=O)c4ccccc4)n3)ccc2n(C2CCCC2)c1=O (stereo not given) |
| 807 s | COc1ccc(-c2cc3n(n2)CCCN(C(=O)c2cccn2C)C3)cc1 |
| 738 s | CCC(C)NC(=O)c1ccc(NC(=O)C2CC2)cc1N1CCCCCC1 (stereo not given) |

| RP-LC retention time | Compound |
| --- | --- |
| 607 s | O=C(c1ccco1)N1CCN(C(=O)C2CCN(c3ccc(N4CCCCC4)nn3)CC2)CC1 |
| 668 s | CN(C)CCCNC(=O)C1CCN(c2nc3ccc(-c4ccccc4)nc3s2)CC1 |
| 1010 s | CC(C)Cn1cc(S(=O)(=O)Nc2ccc(Cl)cc2F)c2cccnc21 |
| 758 s | CN1C(=O)c2cc(C(=O)NC3CCCCC3)nn2CC1(C)C(=O)NCc1ccccc1 (stereo not given) |
| 1020 s | Cc1cn2c(S(=O)(=O)N3CCCCC3)c(C(C)C)nc2s1 |
| 649 s | Cc1nc(CCNC(=O)NC2CCCCC2)no1 |
| 656 s | Cn1nc2n(c1=O)CCN(C(=O)CC1=CCCCC1)CC2 |
| 1120 s | CCn1cc(-c2nc(C(=O)Nc3ccccc3C)cs2)c2cccnc21 |
| 880 s | CC(CCc1ccccc1)NC(=O)Cn1nc2c(Oc3ccccc3)nccn2c1=O (stereo not given) |
| 625 s | COc1ccc(Cl)cc1S(=O)(=O)N1CCC(C(=O)NCc2cccnc2)CC1 |
| 930 s | CCCOc1ccc(-c2nc(N3CCCCC3)c3ccccc3n2)cc1 |
| 881 s | CCCN1C(=O)Cc2ccccc2C1C(=O)NCC1CCCCC1 (stereo not given) |
| 583 s | Cc1cnc(C2CCC2)n1CC1CCCN(Cc2cn(C)c3ccccc23)C1 (stereo not given) |
| 752 s | COCCNC(=O)CN1c2ccccc2NC2=C(C(=O)CC(C)(C)C2)C1c1ccc(F)cc1 (stereo not given) |
| 610 s | CN1CCC(NC(=O)c2ccc3c(c2)N(S(=O)(=O)c2ccccc2)CC3)CC1 |
| 999 s | Cc1nc(-c2cn(C(C)C)c3ncccc23)sc1C(=O)N1CCC(C)CC1 |
| 870 s | CCC(C)NC(=O)N1CCc2c(c(-c3nc(Cc4ccccc4)no3)nn2C)C1 (stereo not given) |
| 722 s | CCn1c(=O)c(C(=O)NCCN(C)C2CCCCC2)nc2cccnc21 |
| 964 s | O=C(Nc1cccc(Cl)c1)C1CCCN(S(=O)(=O)c2c[nH]c(C(=O)N3CCCCCC3)c2)C1 (stereo not given) |
| 707 s | COc1ccc(OC)c(S(=O)(=O)NC2CCc3nn(CC4CC4)c(=O)n3CC2)c1 (stereo not given) |
| 775 s | COCCN1C(=O)Cc2ccccc2C1C(=O)NCc1ccccc1Br (stereo not given) |
| 1100 s | CC(C)n1cc(S(=O)(=O)N2CCN(c3ccccc3F)CC2)c2cccnc21 |
| 782 s | Cc1csc(NC(=O)C2CCN(S(=O)(=O)c3ccc4c(c3)sc(=O)n4C)CC2)n1 |
